# According to patent US20240025906A1 (NEURON23, INC., priority 2022, published 2024):
# Like-named read-outs stand apart in the source and are kept apart here.
# Tests used:
# TYK2 JH2 = target: T1, TYK2 JH2 (Homo sapiens, UniProt P29597); assay: TYK2 JH2 binding assay (KINOMEscan KdELECT competitive binding); conditions: TYK2 JH2 domain
# T1 construct: purchased DiscoverX (KINOMEscan KdELECT service); host or cells: E. coli BL21-derived (T7 phage display) or HEK-293
# Procedure, shortened: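 Test compounds were titrated in 11 three-fold steps against JH2 fragment captured on ligand-loaded magnetic beads, with 1 h incubation at room temperature and DMSO at 0.9%. Eluted kinase was quantified by qPCR, and Kd was fitted from the dose series.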
# [1] = test system: JAK1/TYK2 pSTAT5 (Tyr694/699) in THP-1 cell line; assay: IFNa-stimulated JAK1/TYK2 pSTAT5 (Tyr694/699) inhibition cellular assay, AlphaLISA; format: cell-based; conditions: Homo sapiens, THP-1 cells, AlphaLISA (Assay B)
# Procedure, shortened: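 THP-1 cells (2e4/well) in HBSS preincubated 1 h at 37° C. with compound (final 10000–0.04 nM, 8 points, 6-fold), then stimulated with IFNa (100 ng/mL stock) for 30 min before lysis. pSTAT5 (Tyr694/699) read by AlphaLISA at 615 nm; IC50 from four-parameter logistic fit with bottom fixed at 0 and Hill slope at −1.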
# [2] = DiscoverX KINOMEscan KdELECT (Assay A), read-out: Biochemical TYK2_DiscoverX_JH2_BND_Kd
# [3] = IFNa-stimulated, read-out: Cellular_THP1_IFNa-pSTATS_TYK2
# [4] = KINOMEscan KdELECT (Assay A), read-out: Biochemical TYK2_DiscoverX_JH2_BND_Kd
# [5] = KINOMEscan KdELECT (Assay A), read-out: Biochemical TYK2_JH2_Kd
# [6] = IFNa-stimulated, read-out: Cellular THP1_IFNa-pSTATS_IC50
# [7] = IFNa-stimulated pSTAT5 (Tyr694/699), read-out: Cellular_THP1_IFNa-pSTATS_TYK2
# T1 sequence (P29597 589-875 limits assumed): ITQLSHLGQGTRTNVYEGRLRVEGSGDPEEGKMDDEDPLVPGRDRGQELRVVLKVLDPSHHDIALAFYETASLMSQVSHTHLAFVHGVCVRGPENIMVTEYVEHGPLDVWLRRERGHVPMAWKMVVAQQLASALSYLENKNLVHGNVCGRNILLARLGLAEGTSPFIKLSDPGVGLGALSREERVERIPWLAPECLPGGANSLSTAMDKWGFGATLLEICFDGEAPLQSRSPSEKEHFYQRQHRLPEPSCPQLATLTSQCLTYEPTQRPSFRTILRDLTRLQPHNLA
SMILES,Kd (TYK2 JH2; [2]) [nM],"IC50 [1, 3] [nM]",Kd (TYK2 JH2; [4]) [nM],other results
"CNc1ncc(-c2nc3ccc(C)cn3n2)c2cc(NC(=O)C3CCC3)ncc12 [Example 561, N-(5-(6-methyl-[1,2,4]triazolo[1,5-a]pyridin-2-yl)-8-(methylamino)-2,7-naphthyridin-3-yl)cyclobutanecarboxamide]",≤ 100,≤ 500,–,–
"CNc1ncc(-c2nc3ccc(N4CCO[C@H](C(F)(F)F)C4)cn3n2)c2cc(NC(=O)C3CC3)ncc12 [Example 481, (S)-N-(8-(methylamino)-5-(6-(2-(trifluoromethyl)morpholino)-[1,2,4]triazolo[1,5-a]pyridin-2-yl)-2,7-naphthyridin-3-yl)cyclopropanecarboxamide]",≤ 100,≤ 500,–,–
"CNc1ncc(-c2nc3cc(Br)ccc3o2)c2cc(NC(=O)C3CC3)ncc12 [Example 209, N-(5-(5-bromobenzo[d]oxazol-2-yl)-8-(methylamino)-2,7-naphthyridin-3-yl)cyclopropanecarboxamide]",≤ 100,≤ 500,–,–
"CNc1ncc(C#Cc2ccc3c(c2)C=CC(C)(C)O3)c2cc(NC(=O)C3CC3)ncc12 [Example 978, N-[5-[2-(2,2-dimethylchromen-6-yl)ethynyl]-8-(methylamino)-2,7-naphthyridin-3-yl]cyclopropanecarboxamide]",–,≤ 500,≤ 100,–
"CNc1ncc(-c2ccccc2)c2cc(NC(=O)C3CC3(F)F)ncc12 (centres unmarked) [Example 105, 2,2-difluoro-N-(8-(methylamino)-5-phenyl-2,7-naphthyridin-3-yl)cyclopropane-1-carboxamide]",–,–,–,"Kd (TYK2 JH2; [5]): ≤ 100 nM; IC50 [1, 6]: > 500 nM"
"CNc1ncc(-c2nc3cc(OC)c(OC)cc3o2)c2cc(NC(=O)C3CC3)ncc12 [Example 202, N-(5-(5,6-dimethoxybenzo[d]oxazol-2-yl)-8-(methylamino)-2,7-naphthyridin-3-yl)cyclopropanecarboxamide]",≤ 100,≤ 500,–,–
"CNc1ncc(C#Cc2ccc(N3CCOCC3)cn2)c2cc(NC(=O)C3CC3)ncc12 [Example 951, N-(8-(methylamino)-5-((5-morpholinopyridin-2-yl)ethynyl)-2,7-naphthyridin-3-yl)cyclopropanecarboxamide]",–,≤ 500,≤ 100,–
"CNc1ncc(C#Cc2ncccc2C2CC2)c2cc(NC(=O)C3CC3)ncc12 [Example 955, N-(5-((3-cyclopropylpyridin-2-yl)ethynyl)-8-(methylamino)-2,7-naphthyridin-3-yl)cyclopropanecarboxamide]",–,≤ 500,≤ 100,–
"[2H]C([2H])([2H])Nc1ncc(-c2nc3ccc(N4CCO[C@@H](C)C4)cn3n2)c2cc(NC(=O)C3(F)CC3)ncc12 [Example 576, (S)-1-fluoro-N-(8-((methyl-d3)amino)-5-(6-(2-methylmorpholino)-[1,2,4]triazolo[1,5-a]pyridin-2-yl)-2,7-naphthyridin-3-yl)cyclopropane-1-carboxamide]",≤ 100,≤ 500,–,–
"CNc1ncc(-c2nc3cc(N4CCO[C@@H](C)C4)ccc3o2)c2cc(NC(=O)[C@H]3C[C@H]3C(C)(C)O)ncc12 (racemic) [Example 416, 2-(2-hydroxypropan-2-yl)-N-(8-(methylamino)-5-(5-((S)-2-methylmorpholino)benzo[d]oxazol-2-yl)-2,7-naphthyridin-3-yl)cyclopropane-1-carboxamide]",≤ 100,≤ 500,–,–
"CNc1ncc(/C=C/c2ccc(N3CCO[C@@H](C)C3)cc2)c2cc(NC(=O)C3CC3)ncc12 [Example 787, (S,E)-N-(8-(methylamino)-5-(4-(2-methylmorpholino)styryl)-2,7-naphthyridin-3-yl)cyclopropanecarboxamide]",–,≤ 500,≤ 100,–
"CNc1ncc(-c2cc(Br)no2)c2cc(NC(=O)C3CC3)ncc12 [Example 126, N-(5-(3-bromoisoxazol-5-yl)-8-(methylamino)-2,7-naphthyridin-3-yl)cyclopropanecarboxamide]",–,–,–,"Kd (TYK2 JH2; [5]): ≤ 100 nM; IC50 [1, 6]: > 500 nM"
"CNc1ncc(C#Cc2cn(C)cn2)c2cc(NC(=O)[C@H]3C[C@H]3C)ncc12 [Example 1008, (1S,2R)-2-methyl-N-(5-((1-methyl-1H-imidazol-4-yl)ethynyl)-8-(methylamino)-2,7-naphthyridin-3-yl)cyclopropane-1-carboxamide]",–,–,≤ 100,"IC50 [1, 7]: ≤ 500 nM"
"CNc1ncc(-c2ccn(CCc3ncnn3C)n2)c2cc(NC(=O)C3CC3)ncc12 [Example 836, N-(5-(1-(2-(1-methyl-1H-1,2,4-triazol-5-yl)ethyl)-1H-pyrazol-3-yl)-8-(methylamino)-2,7-naphthyridin-3-yl)cyclopropanecarboxamide]",–,> 500,≤ 100,–
"CNc1ncc(-c2cc3ccncc3o2)c2cc(Nc3cccc(OCCCCO)n3)ncc12 [Example 1103, 4-((6-((5-(furo[2,3-c]pyridin-2-yl)-8-(methylamino)-2,7-naphthyridin-3-yl)amino)pyridin-2-yl)oxy)butan-1-ol]",–,–,≤ 100,"IC50 [1, 7]: ≤ 500 nM"
"CNc1ncc(Br)c2c1cnc1[nH]ccc12 [Example 824, 9-bromo-N-methyl-3H-pyrrolo[2,3-c][2,7]naphthyridin-6-amine]",–,> 500,100 to 1000,–
"CNc1ncc(-c2nc3cc(C4COC4)ccc3o2)c2cc(NC(=O)C3CC3)ncc12 [Example 258, N-(8-(methylamino)-5-(5-(oxetan-3-yl)benzo[d]oxazol-2-yl)-2,7-naphthyridin-3-yl)cyclopropanecarboxamide]",≤ 100,≤ 500,–,–
"CNc1ncc(C#Cc2ccc3c(cnn3C(F)F)c2)c2cc(NC(=O)C3CC3)ncc12 [Example 723, N-(5-((1-(difluoromethyl)-1H-indazol-5-yl)ethynyl)-8-(methylamino)-2,7-naphthyridin-3-yl)cyclopropanecarboxamide]",–,≤ 500,≤ 100,–
"CNc1ncc(C#Cc2ccc3nnn(CCOC)c3c2)c2cc(NC(=O)C3CC3)ncc12 [Example 682, N-(5-((1-(2-methoxyethyl)-1H-benzo[d][1,2,3]triazol-6-yl)ethynyl)-8-(methylamino)-2,7-naphthyridin-3-yl)cyclopropanecarboxamide]",–,≤ 500,≤ 100,–
"CNc1ncc(C#Cc2ccc3nc(CC(F)(F)F)n(C)c3c2)c2cc(NC(=O)C3CC3)ncc12 [Example 774, N-(5-((1-methyl-2-(2,2,2-trifluoroethyl)-1H-benzo[d]imidazol-6-yl)ethynyl)-8-(methylamino)-2,7-naphthyridin-3-yl)cyclopropanecarboxamide]",–,≤ 500,≤ 100,–
"CNc1ncc(C#Cc2ccc3ncn(C)c3c2)c2cc(NC(=O)C3CC3)ncc12 [Example 616, N-(5-((1-methyl-1H-benzo[d]imidazol-6-yl)ethynyl)-8-(methylamino)-2,7-naphthyridin-3-yl)cyclopropanecarboxamide]",–,≤ 500,≤ 100,–
"CNc1ncc(C#Cc2ccc(-n3ccccc3=O)cc2)c2cc(NC(=O)C3(F)CC3)ncc12 [Example 1138, 1-fluoro-N-(8-(methylamino)-5-((4-(2-oxopyridin-1(2H)-yl)Phenyl)ethynyl)-2,7-naphthyridin-3-yl)cyclopropanecarboxamide]",–,–,≤ 100,"IC50 [1, 7]: ≤ 500 nM"
CNc1ncc(-c2nc3ccc(C4CCOCC4)cn3n2)c2cc(NC(=O)C3CC3)ncc12 [Example 1035],–,–,≤ 100,"IC50 [1, 7]: ≤ 500 nM"
"CNc1ncc(-c2nc3cc(N4CCO[C@@H](C)C4)ccc3o2)c2cc(NC(=O)C3(C)CC3)ncc12 [Example 409, (S)-1-methyl-N-(8-(methylamino)-5-(5-(2-methylmorpholino)benzo[d]oxazol-2-yl)-2,7-naphthyridin-3-yl)cyclopropane-4-carboxamide]",≤ 100,≤ 500,–,–
"CNc1ncc(-c2nc3cc(C4CN(S(C)(=O)=O)C4)ccc3o2)c2cc(NC(=O)C3CC3)ncc12 [Example 252, N-(8-(methylamino)-5-(5-(1-(methylsulfonyl)azetidin-3-yl)benzo[d]oxazol-2-yl)-2,7-naphthyridin-3-yl)cyclopropanecarboxamide]",≤ 100,≤ 500,–,–
"CNc1ncc(-c2nc3cc(O[C@H](C)COC)ccc3o2)c2cc(NC(=O)C3CC3)ncc12 [Example 351, (R)—N-(5-(5-((1-methoxypropan-2-yl)oxy)benzo[d]oxazol-2-yl)-8-(methylamino)-2,7-naphthyridin-3-yl)cyclopropanecarboxamide]",≤ 100,≤ 500,–,–
"CNc1ncc(-c2nc3cc(N4CC[C@H]4C(N)=O)ccc3o2)c2cc(NC(=O)C3CC3)ncc12 [Example 321, (S)-1-(2-(6-(cyclopropanecarboxamido)-1-(methylamino)-2,7-naphthyridin-4-yl)benzo[d]oxazol-5-yl)azetidine-2-carboxamide]",≤ 100,≤ 500,–,–
"[2H]C([2H])([2H])Nc1ncc(C#Cc2ccc(OC)cn2)c2cc(NC(=O)C3CC3)ncc12 [Example 778, N-(5-((5-methoxypyridin-2-yl)ethynyl)-8-((methyl-d3)amino)-2,7-naphthyridin-3-yl)cyclopropanecarboxamide]",–,≤ 500,≤ 100,–
